Data set [1] relates to foreskin cells in which senescence was induced by doxorubicin. The data set can be described thus: CellTiter-Glo cell viability of doxorubicin-induced senescent foreskin cells (Examples 1-2, 10, 11, 13; Tables 4, 63, 65). The data set is classed as cell-based, human. Particulars: for viability at 1.1 µM / viability at 10 µM: Homo sapiens, 72 h, read-out: Survival (%); for viability at 10 µM: LX-112 10 μM.
Procedure: (§3) After 3 days, cell viability was measured using CellTiter-Glo Luminescent Cell Viability Assay (Promega) or light microscopy.

For another data set, the system named is SA-β-gal. The data set can be described thus: SA-β-gal staining of tissue sections of naturally aged mice (Example 7-3). The data set is classed as in vivo, C57BL6J mice. The following applies: stained area, LX-112 70 mg/kg oral daily 21 days. As for the experimental part: (§1) After 22-month-old female C57BL6J mice (purchased from KRIBB Laboratory Animal Resource Center) were adapted to the experimental environment for one week, the aged mice were randomized into an experimental group and a control group. 8-week-old mice that were not aged were used as controls. LX-112 was mixed with 0.5% CMC-Na solution (purchased from Sigma) and administered orally at a concentration of 70 mg/kg daily for 21 days. The control group was administered only the solution in the same volume. After drug administration was completed, the method described in each Example below was performed.
The mouse was sacrificed, tissue sections were prepared from the organ tissues of each region, and stained for an aging marker (SA-β-gal) in the same manner as Example 1-1. Specifically, fat was removed from the tissues of each area collected from mice and fixed in 4% formalin at room temperature for more than 24 hours. For cryopreservation, the cells were placed in 30% sucrose for more than 8 hours and then rapidly frozen in cryoprotectant OCT medium for cryosectioning. The rapidly frozen tissue was commissioned to Histoa, a company specializing in histopathology services, and frozen sections were produced. The prepared frozen tissue sections were cut to a thickness of 8 μm, sectioned on a slide cover, dried at room temperature for 30 minutes, and then stored at −80° C. until use. After staining the aging marker (SA-β-gal), the images were taken through an optical microscope, and the area of the stained area was calculated using the Image J program and quantified by normalizing it based on the total area. […] FIG. 2 is a photo result of staining of adipose tissue.

Data set [2] can be described thus: frailty tests (open field, wire hanging, grip strength, muscle mass) in naturally aged mice (Example 7-7). The data set is classed as in vivo, C57BL6J mice. As for the experimental part: as §1
To analyze aging-related senescence in mice, activity evaluation (open field test), endurance evaluation (wire hanging test), and muscle strength and grip strength test (grip strength test) were performed. Specifically, in the open field test, the mouse was placed in a white square box and the trajectory it moved for a certain period of time was measured. The measurement results were compared by analyzing the ratio of time spent in the central area to the total time. In the wire hanging test, the time the mouse could endure hanging on a wire was measured. In the muscle strength and grip test (grip strength test), the mouse was made to hold the grip strength measuring device (purchased from Jeongdo B&P) with its front paws by holding its tail, then pulled slightly until it missed, and the force applied to the measuring device just before missing was measured. […] Table 33 calculates the amount of each evaluation after induced aging as 100% and compares it with the amount of each evaluation after treatment with LX-112.

Data set [3] can be described thus: skin aging (dermal thickness, collagen mRNA) in naturally aged mice (Example 7-9). The class given is in vivo, C57BL6J mice. On the procedure:
as §1
Frozen sections of skin tissue were stained with H/E (Hematoxylin/Eosin), and the thickness of the dermis was observed under an optical microscope. Additionally, the mRNA amount of collagen (COL1A1) was measured by qRT-PCR as described in Example 7-2.

The nature of data set [4]: fatigue/weakness tests and body weight in doxorubicin-aged mice (Example 8-7). The class given is in vivo, C57BL6J mice. On the procedure: (§2) After adapting 8-week-old male C57BL6J mice (purchased from KRIBB Laboratory Animal Resource Center) to the experimental environment for 1 week, doxorubicin, an anticancer drug, was administered intraperitoneally at a concentration of 10 mg/kg, and mice that were induced to age for more than 10 days were assigned to an experimental group and a control group. LX-112 was mixed with 0.5% CMC-Na solution (purchased from Sigma) and administered orally at a concentration of 70 mg/kg daily for 21 days. The control group was administered only the solution in the same volume. After drug administration was completed, the method described in each Example below was performed.
In the same way as Example 7-7, in order to analyze fatigue and weakness that occur as a side effect due to treatment with anticancer drugs in mice, activity evaluation (open field test), endurance evaluation (wire hanging test), and muscle strength and grip strength test (grip strength test) were performed. […] In Table 47, the amount of each evaluation after aging was induced by treatment with the anticancer drug was calculated as 100% and compared it with the amount of each evaluation after treatment with LX-112.

The test system of data set [5] is urea, creatinine, Agtr1a mRNA. The data set can be described thus: kidney damage markers in doxorubicin-aged mice (Example 8-9). The following applies: LX-112 70 mg/kg oral daily 21 days, DOX without LX = 100%. The class given is in vivo, C57BL6J mice. As for the experimental part:
as §2
The amounts of urea and creatinine, markers of kidney damage, in serum collected from mice were measured using spectrophotometry in the same manner as in Example 7-8. […] The amount of each factor after aging was induced by treatment with the anticancer drug was calculated as 100% and compared it with the amount of each factor after treatment with LX-112.

The test system of a further data set is HMGN1. Kind of data set: HMGN1 ELISA in culture medium of foreskin cells (Examples 10, 11; Tables 62, 63, 64). The class given is cell-based, human. The following applies: for HMGN1 (pg/ml): senescent foreskin cells.
Another data set has as its system senescent foreskin cells. Kind of data set: survival of senescent foreskin cells treated with medium supernatant (secreted fluid) of compound-killed cells (Example 13, Tables 68, 69). The class given is cell-based, human. Particulars: for Survival (%): supernatant-treated cells: senescent cells, after 3 days.
Data set [6] has as its system foreskin cells in which senescence was not induced. Kind of data set: CellTiter-Glo growth of foreskin cells in which senescence was not induced (Tables 5, 12). Particulars: 3 days.
Procedure: as §3
For data set [7], the system named is normally proliferating cancer (A549) cells. The data set can be described thus: survival of normally proliferating A549 cancer cells treated with medium supernatant of compound-killed cancer cells (Example 14, Table 70). The data set is classed as cell-based, human. As for the experimental part:
In the same way as Examples 12 and 13, senescence of cancer (A549) cells was induced by treatment with doxorubicin or the control group (DMSO), and the cells were cultured. […] In the same manner as in Example 13, the medium supernatants comprising secreted fluid from normally proliferating and senescent cancer cells was obtained. Normally proliferating and senescent-induced cancer cells were treated with the medium supernatants.

Where [8] appears, read: LX-112 70 mg/kg oral daily 21 days, aged untreated = 100%.

Where two headings read alike, the source gives them in different places.

In the case of `O=c1c2ccccc2[se]n1CCn1[se]c2ccccc2c1=O` [LX-112, 1,2-[bis(1,2-benzisoselenazolone-3(2H)-ketone)]ethane], the viability at 1.1 µM came out at 67.2% in [1] (LX-112 1.1 μM, 3 days) and 67.2% in [1] (LX-112 1.1 μM, senescent foreskin cells). Further, the viability at 10 µM in data set [1] (3 days) and in data set [1] (senescent foreskin cells) was 1% throughout. In addition, in the data set on SA-β-gal, the “SA-β-gal (%) Kidney” value was 55 (±17) %. Also, the “SA-β-gal (%) Liver” value in the data set on SA-β-gal is given as 58 (±6) %. Moreover, in the data set with SA-β-gal, the “SA-β-gal (%) Lung” value is listed as 67 (±6) %. Moreover, the “SA-β-gal (%) Skin” value in the data set with SA-β-gal is 68 (±9) %. In addition, the “SA-β-gal (%) eWAT” value with SA-β-gal was 38 (±7) %. Further, the “weight of overall fat tissue” value in data set [2] (LX-112) is “increased”. In addition, the “Grip Sterenght Test Strength (%)” value in data set [2] (setting [8]) is 132 (±11) %. Moreover, the “Open Field Test Time in Center (%)” value in data set [2] (setting [8]) was 121 (±9) %; in [4] (Table 47, doxorubicin-aged mice, LX-112 70 mg/kg oral daily 21 days, DOX without LX = 100), 129 (±15) %. The “Wire Hanging Test Time (%)” value in data set [2] (setting [8]) is given as 119 (±10) %. Also, the “Muscle Mass (g)” value in data set [2] (quadriceps and gastrocnemius, LX-112 70 mg/kg oral daily 21 days) was 0.7 (±0.1) g. In addition, the “Collagen mRNA (Fold)” value in data set [3] (COL1A1, skin, LX-112, aged untreated = 1) is 2.3 (±0.4) Fold. In [3] (LX-112 70 mg/kg oral daily 21 days), the “Dermal Thickness (μm)” value was 265 (±17.2) μm. Also, in data set [4] (mice, doxorubicin 10 mg/kg i.p. without or with LX-112 70 mg/kg oral daily 21 days), the “Mean Body Weight (g)” value is 22.8 (±3.1) g. Further, the “Agtr1a mRNA (%)” value in [5] was 75 (±9) %. For the same molecule, the “Creatinine (%)” value in [5] (serum) is 89 (±4) %. Besides, the “Urea (%)” value in [5] (serum) is 91.2 (±1.2) %. Further, the “HMGN1 (pg/ml)” value was 262.45 (±23.4) pg/ml with HMGN1 (10 μM, culture medium after 6 hours); 129.7(±9.3) pg/ml with HMGN1 (LX-112 1.1 μM); 262.45 (±23.4) pg/ml with HMGN1 (LX-112 10 μM). Moreover, the “HMGN1 secreted in the culture medium from dying senescent cells” value with HMGN1 (ABT-263 1 μM or LX-112 10 μM, 6 hours) is given as “greatly increased”. For the same molecule, the “death of senescent cells by medium supernatant (secreted fluid) of cells killed by the compound” value in the data set on senescent foreskin cells (supernatant from normally proliferating or senescent cells, survival after 3 days) is “selectively induced the death of senescent cells”. The “Growth (%)” value in data set [6] (Table 5, LX-112 1.1 μM, N0 (cell number before treatment) = 100%) is on record as 201 (±8) %; in [6] (Table 5, LX-112 10 μM, N0 = 100%) it was 123 (±8) %; in data set [6] (Table 12, LX-112 1.1 μM, N0 = 100%), 206 (±15) %; in data set [6] (Table 12, LX-112 10 μM, N0 = 100%), 122.7 (±16) %.
For the molecule `COC(=O)c1ccc([C@H]2c3[nH]c4ccccc4c3C[C@H](C(=O)OC)N2C(=O)CCl)cc1` [LX-405], in data set [1] (30 μM, 3 days), the “cell death, senescent cells” value is listed as “induced the death of most cells”. Moreover, the viability at 1.1 µM in data set [1] (1.1 μM test compound, doxorubicin-induced senescent foreskin cells, CellTiter-Glo, 0 μM = 100) was determined as 4.9%. Also, in the data set with HMGN1 (Homo sapiens, 30 μM test compound, doxorubicin-treated foreskin cells, DMSO = 100, read-out: HMGN1), the activity at 30 µM came out at 285%. The “Survival (%)” value is 102.8 (±4.6) % in the data set on senescent foreskin cells (supernatant from compound-treated medium without cells (No Cells)); 41.3 (±3.6) % in the data set with senescent foreskin cells (supernatant from death-induced proliferating foreskin cells (compound 30 μM)); 52.7 (±0.1) % with senescent foreskin cells (supernatant from death-induced senescent foreskin cells (compound 30 μM)); 101.4 (±1.3) % in data set [7] (supernatant from No Cells); 98.6 (±4.8) % in [7] (supernatant from death-induced proliferating cells (LX-405 30 μM)); 105.2 (±4.9) % in data set [7] (supernatant from death-induced senescent cells (LX-405 30 μM)). Further, the “cell death, normally proliferating cells” value in data set [6] (30 μM) was “induced the death of most cells”.

The values are drawn from US20250108036A1, “COMPOSITIONS FOR REMOVING SENESCENT CELLS AND USES THEREOF” (LIFECEUTIX CO., LTD., priority 2021, published 2025).
